Structures are written as SMILES.

A word on the IC50: it is the point on the concentration scale where inhibition reaches its midpoint. A high value points to a need for much substance.

T1 sequence (P49336 whole entry): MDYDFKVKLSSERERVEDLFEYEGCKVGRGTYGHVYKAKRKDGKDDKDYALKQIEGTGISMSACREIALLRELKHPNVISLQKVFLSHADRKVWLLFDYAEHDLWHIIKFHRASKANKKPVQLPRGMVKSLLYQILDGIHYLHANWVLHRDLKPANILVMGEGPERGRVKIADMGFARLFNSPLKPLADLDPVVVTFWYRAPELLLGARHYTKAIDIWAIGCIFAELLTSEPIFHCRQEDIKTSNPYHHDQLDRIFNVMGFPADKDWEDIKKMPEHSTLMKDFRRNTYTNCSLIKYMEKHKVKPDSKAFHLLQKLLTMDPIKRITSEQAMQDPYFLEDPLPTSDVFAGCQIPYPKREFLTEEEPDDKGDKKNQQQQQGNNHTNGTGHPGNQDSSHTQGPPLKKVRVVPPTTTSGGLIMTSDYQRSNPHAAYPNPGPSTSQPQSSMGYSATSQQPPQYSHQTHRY

The first experiment has as its target T1, Cyclin-dependent kinase 8 (Homo sapiens, UniProt P49336). Nature of the experiment: Inhibition of CDK8 (unknown origin) by competitive kinase binding based Lantha-screen Eu kinase binding assay.
`CN(C)[C@H]1CC[C@@]2(C)C(=CC[C@H]3[C@@H]4CC[C@H](c5ccc6ccncc6c5)[C@@]4(C)CC[C@@H]32)C1`: the concentration for half-maximal inhibition (IC50) was ≤ 100 nM.

Consider `CC(=O)N(C)[C@H]1CC[C@@]2(C)[C@@H](CC[C@@H]3[C@@H]2CC[C@]2(C)[C@@H](c4ccc5ccncc5c4)CC[C@@H]32)C1`, for which the concentration for half-maximal inhibition (IC50) was ≤ 100 nM.

In turn, `C[C@]12CC[C@H](O)C[C@@H]1CC[C@@H]1[C@@H]2CC[C@]2(C)C(c3ccc4ccncc4c3)=CC[C@@H]12` yielded an IC50 of 701 nM.

For `CN(C)[C@@H]1CC[C@@]2(C)[C@@H](CC[C@@H]3[C@@H]2CC[C@]2(C)[C@@H](c4ccc5ccncc5c4)CC[C@@H]32)C1`, the concentration for half-maximal inhibition (IC50) was ≤ 100 nM.

With `C[C@]12CC[C@H](O)CC1=CC[C@@H]1[C@@H]2CC[C@]2(C)C(c3ccc4[nH]ncc4c3)=CC[C@@H]12`, the IC50 was ≥ 6000 nM.

Regarding `C[C@]12CC[C@H]3[C@@H](CC=C4C[C@@H](O)CC[C@@]43C)[C@@H]1CC[C@@H]2c1ccc2cn[nH]c2c1`, the concentration for half-maximal inhibition (IC50) was ≥ 6000 nM.

In turn, `C[C@]12CC[C@H](O)CC1=CC[C@@H]1[C@@H]2CC[C@]2(C)C(c3ccc4c(N)n[nH]c4c3)=CC[C@@H]12` gave a concentration for half-maximal inhibition (IC50) of 701 nM.

`C[C@]12CC[C@H](O)CC1=CC[C@@H]1[C@@H]2CC[C@]2(C)C(c3ccc4nc(N)ncc4c3)=CC[C@@H]12` came in with an IC50 of 2000 nM.

Turning to `C[C@]12CC[C@H](n3ccnn3)C[C@@H]1CC[C@@H]1[C@@H]2CC[C@]2(C)[C@@H](c3ccc4ccncc4c3)CC[C@@H]12`, the IC50 was ≤ 100 nM.

Take `C[C@]12CC[C@H]3[C@@H](CC=C4C[C@@H](O)CC[C@@]43C)[C@@H]1CC[C@@H]2c1ccc2ccncc2c1`: the IC50 is ≤ 100 nM.

Regarding `C[C@]12CC[C@H](O)C[C@@H]1CC[C@@H]1[C@@H]2CC[C@]2(C)[C@@H](c3ccc4ccncc4c3)CC[C@@H]12`, the half-inhibitory concentration (IC50) was 201 nM.

As to `C[C@]12CC[C@H]3[C@@H](CC=C4C[C@@H](O)CC[C@@]43C)[C@@H]1CC[C@@H]2c1ccc2nc(N)ncc2c1`, the IC50 was 101 nM.

For the compound `C[C@]12CC[C@H](O)CC1=CC[C@@H]1[C@@H]2CC[C@]2(C)C(c3ccc4cnccc4c3)=CC[C@@H]12`, the IC50 is ≥ 6000 nM.

Regarding `C[C@]12CC[C@H](O)CC1=CC[C@@H]1[C@@H]2CC[C@]2(C)C(c3ccc4cn[nH]c4c3)=CC[C@@H]12`, the half-inhibitory concentration (IC50) was ≥ 6000 nM.

As for `CN[C@H]1CC[C@@]2(C)[C@@H](CC[C@@H]3[C@@H]2CC[C@]2(C)[C@@H](c4ccc5ccncc5c4)CC[C@@H]32)C1`, the IC50 came to 701 nM.

For the compound `CN(C)[C@H]1CC[C@@]2(C)[C@@H](CC[C@@H]3[C@@H]2CC[C@]2(C)C(c4ccc5ccncc5c4)=CC[C@@H]32)C1`, the IC50 came out at 101 nM.

Turning to `C[C@]12CC[C@H](O)CC1=CC[C@@H]1[C@@H]2CC[C@]2(C)C(c3ccc4cnncc4c3)=CC[C@@H]12`, the half-inhibitory concentration (IC50) is ≥ 6000 nM.

As for `CN(C)[C@H]1CC[C@@]2(C)[C@@H](CC[C@@H]3[C@@H]2CC[C@]2(C)[C@@H](c4ccc5ccncc5c4)CC[C@@H]32)C1`, the IC50 is ≤ 100 nM.

As for `C[C@]12CC[C@H]3[C@@H](CC=C4C[C@@H](O)CC[C@@]43C)[C@@H]1CC[C@@H]2c1ccc2cnccc2c1`, the IC50 was 2000 nM.

As to `C[C@]12CC[C@H](N3CCOCC3)C[C@@H]1CC[C@@H]1[C@@H]2CC[C@]2(C)[C@@H](c3ccc4ccncc4c3)CC[C@@H]12`, the 50% inhibitory concentration (IC50) was found to be 101 nM.

Regarding `CN(C)[C@@H]1CC[C@@]2(C)[C@@H](CC[C@@H]3[C@@H]2CC[C@]2(C)C(c4ccc5ccncc5c4)=CC[C@@H]32)C1`, the IC50 came to 201 nM.

Regarding `C[C@]12CC[C@H](O)CC1=CC[C@@H]1[C@@H]2CC[C@]2(C)C(c3ccc4ccncc4c3)=CC[C@@H]12`, the IC50 was found to be 101 nM.

With `C[C@]12CC[C@H]3[C@@H](CC=C4C[C@@H](O)CC[C@@]43C)[C@@H]1CC[C@@H]2c1ccc2c(N)n[nH]c2c1`, the 50% inhibitory concentration (IC50) turned out to be 301 nM.

Consider `C[C@]12CC[C@H]3[C@@H](CC=C4C[C@@H](O)CC[C@@]43C)[C@@H]1CC[C@@H]2c1ccc2[nH]ncc2c1`, for which the 50% inhibitory concentration (IC50) was ≥ 6000 nM.

Consider `C[C@]12CC[C@H]3[C@@H](CC=C4C[C@@H](O)CC[C@@]43C)[C@@H]1CC[C@@H]2c1ccc2cnncc2c1`, for which the IC50 is ≥ 6000 nM.

A further experiment deals with T1, Cyclin-dependent kinase 8. Nature of the experiment: Inhibition of CDK8 in human HepG2 cells assessed as reduction in IFNgamma-induced STATl S727 phosphorylation incubated for 18 hrs by Western blot analysis. Type of experiment: cell-based. Background: In western blotting, separated proteins are transferred to a membrane and probed.
In the case of `CN(C)[C@H]1CC[C@@]2(C)C(=CC[C@H]3[C@@H]4CC[C@H](c5ccc6ccncc6c5)[C@@]4(C)CC[C@@H]32)C1`, the inhibition result was “Dose-dependent effect”.

Another experiment concerns the target T2, Serine/threonine-protein kinase Nek1 (Homo sapiens, UniProt Q96PY6).
T2 sequence (Q96PY6 whole entry): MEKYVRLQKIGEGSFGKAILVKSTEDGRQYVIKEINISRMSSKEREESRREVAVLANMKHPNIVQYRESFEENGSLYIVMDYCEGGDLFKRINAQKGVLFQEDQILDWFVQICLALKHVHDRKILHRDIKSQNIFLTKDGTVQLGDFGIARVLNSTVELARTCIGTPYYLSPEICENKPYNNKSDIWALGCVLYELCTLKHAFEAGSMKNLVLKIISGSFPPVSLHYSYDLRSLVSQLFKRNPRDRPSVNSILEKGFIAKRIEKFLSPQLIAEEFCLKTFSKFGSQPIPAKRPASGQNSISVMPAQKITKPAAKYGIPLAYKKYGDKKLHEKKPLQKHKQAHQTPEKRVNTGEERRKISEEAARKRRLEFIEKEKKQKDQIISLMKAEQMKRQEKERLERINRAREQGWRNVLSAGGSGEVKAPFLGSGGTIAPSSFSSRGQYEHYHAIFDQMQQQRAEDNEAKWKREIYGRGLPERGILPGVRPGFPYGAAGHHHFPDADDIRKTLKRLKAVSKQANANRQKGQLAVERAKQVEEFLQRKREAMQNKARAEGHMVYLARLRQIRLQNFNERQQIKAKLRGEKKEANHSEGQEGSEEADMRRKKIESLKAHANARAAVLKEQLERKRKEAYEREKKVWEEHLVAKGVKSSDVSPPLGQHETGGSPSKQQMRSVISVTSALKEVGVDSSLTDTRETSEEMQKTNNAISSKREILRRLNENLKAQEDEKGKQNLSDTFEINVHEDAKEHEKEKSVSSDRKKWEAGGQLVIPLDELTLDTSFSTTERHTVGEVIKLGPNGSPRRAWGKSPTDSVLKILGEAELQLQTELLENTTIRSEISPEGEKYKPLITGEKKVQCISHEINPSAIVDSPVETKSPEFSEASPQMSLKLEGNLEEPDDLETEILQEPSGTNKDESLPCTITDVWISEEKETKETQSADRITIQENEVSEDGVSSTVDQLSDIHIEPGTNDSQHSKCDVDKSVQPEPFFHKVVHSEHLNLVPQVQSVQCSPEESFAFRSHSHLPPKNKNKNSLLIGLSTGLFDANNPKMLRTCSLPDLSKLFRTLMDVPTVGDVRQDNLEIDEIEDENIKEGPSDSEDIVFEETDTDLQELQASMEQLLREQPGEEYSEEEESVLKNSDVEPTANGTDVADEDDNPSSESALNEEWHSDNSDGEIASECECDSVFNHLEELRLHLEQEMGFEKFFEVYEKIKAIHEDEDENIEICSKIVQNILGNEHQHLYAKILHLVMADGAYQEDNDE
Kind of experiment: Inhibition of NEK1 (unknown origin).
With `CN(C)[C@H]1CC[C@@]2(C)C(=CC[C@H]3[C@@H]4CC[C@H](c5ccc6ccncc6c5)[C@@]4(C)CC[C@@H]32)C1`, the IC50 is > 10000 nM.

The values above are taken from ChEMBL document CHEMBL4742401, “Cyclin-dependent kinase inhibitors and methods of use” (2019).
